Test results from ChEMBL document CHEMBL3044568, “Synthesis, analgesic, anti-inflammatory, and in vitro antimicrobial activities of some novel quinazolin-4(3H)-one derivatives” (Med Chem Res, 2013).
Values after ≈ are worked out from the molar mass of the structure shown.

Experiments:
Aspergillus fumigatus = test: Antifungal activity against Aspergillus fumigatus ATCC 46645 assessed as growth inhibition after 48 hr by agar streak dilution method; format: functional; settings: ATCC 46645, 48 h
Aspergillus niger = test: Antifungal activity against Aspergillus niger ATCC 9029 assessed as growth inhibition after 48 hr by agar streak dilution method; format: functional; settings: ATCC 9029, 48 h
Klebsiella pneumoniae = test: Antibacterial activity against Klebsiella pneumoniae ATCC 11298 assessed as growth inhibition after 24 hr by agar streak dilution method; format: functional; settings: ATCC 11298, 24 h
Pseudomonas aeruginosa = test: Antibacterial activity against Pseudomonas aeruginosa […] assessed as growth inhibition after 24 hr by agar streak dilution method; format: functional
Rattus norvegicus [1] = test: Anti-inflammatory activity in Rattus norvegicus Wistar (rat) assessed as protection against carrageenan-induced paw edema at 20 mg/kg, po measured at 1 hr by plethysmographic analysis (reference value: 6 +/- 0.63%); format: functional
Rattus norvegicus [2] = test: Anti-inflammatory activity in Rattus norvegicus Wistar (rat) assessed as protection against carrageenan-induced paw edema at 10 mg/kg, po measured at 1 hr by plethysmographic analysis (reference value: 6 +/- 0.63%); format: functional
Rattus norvegicus [3] = test: Anti-inflammatory activity in Rattus norvegicus Wistar (rat) assessed as protection against carrageenan-induced paw edema at 20 mg/kg, po measured at 30 min by plethysmographic analysis (reference value: 4 +/- 0.28%); format: functional
Rattus norvegicus [4] = test: Anti-inflammatory activity in Rattus norvegicus Wistar (rat) assessed as protection against carrageenan-induced paw edema at 10 mg/kg, po measured at 30 min by plethysmographic analysis (reference value: 4 +/- 0.28%); format: functional
Escherichia coli = test: Antibacterial activity against Escherichia coli ATCC 25922 assessed as growth inhibition after 24 hr by agar streak dilution method; format: functional; settings: ATCC 25922, 24 h
Bacillus cereus = test: Antibacterial activity against Bacillus cereus ATCC 11778 assessed as growth inhibition after 24 hr by agar streak dilution method; format: functional; settings: ATCC 11778, 24 h
Micrococcus luteus = test: Antibacterial activity against Micrococcus luteus ATCC 4698 assessed as growth inhibition after 24 hr by agar streak dilution method; format: functional; settings: ATCC 4698, 24 h
[5] = system: Staphylococcus epidermidis; test: Antibacterial activity against Staphylococcus epidermidis ATCC 155 assessed as growth inhibition after 24 hr by agar streak dilution method; format: functional; settings: ATCC 155, 24 h
Staphylococcus aureus = test: Antibacterial activity against Staphylococcus aureus ATCC 9144 assessed as growth inhibition after 24 hr by agar streak dilution method; format: functional; settings: ATCC 9144, 24 h
Rattus norvegicus [6] = test: Ulcerogenecity in Rattus norvegicus Wistar albino (rat) stomach assessed as ulcer index administered 20 mg/kg, ip qd for 3 days measured on day 4 relative to aspirin; format: ADME, organism-based; design: dose 20 mg/kg, route intraperitoneal; settings: in vivo, 72 h
Rattus norvegicus [7] = test: Ulcerogenecity in Rattus norvegicus Wistar albino (rat) stomach assessed as ulcer index administered 20 mg/kg, ip qd for 3 days measured on day 4 relative to diclofenac; format: ADME, organism-based; design: dose 20 mg/kg, route intraperitoneal; settings: in vivo, 72 h
Rattus norvegicus [8] = test: Ulcerogenecity in Rattus norvegicus Wistar albino (rat) stomach assessed as ulcer index administered 20 mg/kg, ip qd for 3 days measured on day 4 (reference value: 0.13 +/- 0.05 no unit); format: ADME, organism-based; design: dose 20 mg/kg, route intraperitoneal; settings: in vivo, 72 h
Rattus norvegicus [9] = test: Anti-inflammatory activity in Rattus norvegicus Wistar (rat) assessed as protection against carrageenan-induced paw edema at 20 mg/kg, po measured at 3 hr by plethysmographic analysis (reference value: 4 +/- 0.75%); format: functional
Rattus norvegicus [10] = test: Anti-inflammatory activity in Rattus norvegicus Wistar (rat) assessed as protection against carrageenan-induced paw edema at 10 mg/kg, po measured at 3 hr by plethysmographic analysis (reference value: 4 +/- 0.75%); format: functional
Rattus norvegicus [11] = test: Anti-inflammatory activity in Rattus norvegicus Wistar (rat) assessed as protection against carrageenan-induced paw edema at 20 mg/kg, po measured at 2 hr by plethysmographic analysis (reference value: 5 +/- 0.41%); format: functional
Rattus norvegicus [12] = test: Anti-inflammatory activity in Rattus norvegicus Wistar (rat) assessed as protection against carrageenan-induced paw edema at 10 mg/kg, po measured at 2 hr by plethysmographic analysis (reference value: 5 +/- 0.41%); format: functional
Mus musculus [13] = test: Analgesic activity in Mus musculus […] albino (mouse) at 20 mg/kg, po measured at 3 hr by tail flick test (reference value: 3 +/- 0.41%)
Mus musculus [14] = test: Analgesic activity in Mus musculus […] albino (mouse) at 10 mg/kg, po measured at 3 hr by tail flick test (reference value: 3 +/- 0.41%)
Mus musculus [15] = test: Analgesic activity in Mus musculus […] albino (mouse) at 20 mg/kg, po measured at 2 hr by tail flick test (reference value: 6 +/- 0.84%)
Mus musculus [16] = test: Analgesic activity in Mus musculus […] albino (mouse) at 10 mg/kg, po measured at 2 hr by tail flick test (reference value: 6 +/- 0.84%)
Mus musculus [17] = test: Analgesic activity in Mus musculus […] albino (mouse) at 10 mg/kg, po measured at 1 hr by tail flick test (reference value: 5 +/- 0.49%)
Mus musculus [18] = test: Analgesic activity in Mus musculus […] albino (mouse) at 20 mg/kg, po measured at 1 hr by tail flick test (reference value: 5 +/- 0.49%)
Mus musculus [19] = test: Analgesic activity in Mus musculus […] albino (mouse) at 20 mg/kg, po measured at 30 min by tail flick test (reference value: 4 +/- 0.72%)
Mus musculus [20] = test: Analgesic activity in Mus musculus […] albino (mouse) at 10 mg/kg, po measured at 30 min by tail flick test (reference value: 4 +/- 0.72%)

| Compound | MIC (Aspergillus fumigatus) [µg/mL] | MIC (Aspergillus niger) [µg/mL] | MIC (Klebsiella pneumoniae) [µg/mL] | MIC (Pseudomonas aeruginosa) [µg/mL] | Activity (Rattus norvegicus [1]) [%] | Activity (Rattus norvegicus [2]) [%] | Activity (Rattus norvegicus [3]) [%] | Activity (Rattus norvegicus [4]) [%] | MIC (Escherichia coli) [µg/mL] | MIC (Bacillus cereus) [µg/mL] | MIC (Micrococcus luteus) [µg/mL] | MIC [5] [µg/mL] | MIC (Staphylococcus aureus) [µg/mL] | Activity (Rattus norvegicus [9]) [%] | Activity (Rattus norvegicus [10]) [%] | Activity (Rattus norvegicus [11]) [%] | Activity (Rattus norvegicus [12]) [%] | Activity (Mus musculus [13]) [%] | Activity (Mus musculus [14]) [%] | Activity (Mus musculus [15]) [%] | other results |
| --- | --- | --- | --- | --- | --- | --- | --- | --- | --- | --- | --- | --- | --- | --- | --- | --- | --- | --- | --- | --- | --- |
| Cc1nc2ccccc2c(=O)n1-c1ccc(NC(=O)CN/N=C/c2ccc(C(F)(F)F)cc2)cc1 | 15.6 (≈ 32.6 µM) | 7.81 (≈ 16.3 µM) | 7.81 (≈ 16.3 µM) | 7.81 (≈ 16.3 µM) | 57 | 40 | 46 | 35 | 31.2 (≈ 65.2 µM) | 3.9 (≈ 8.13 µM) | 7.81 (≈ 16.3 µM) | 15.6 (≈ 32.6 µM) | 15.6 (≈ 32.6 µM) | 47 | 39 | 65 | 46 | 45 | 39 | 70 | UI (Rattus norvegicus [6]): 32%; UI (Rattus norvegicus [7]): 32%; UI (Rattus norvegicus [8]): 0.55 no unit; Activity (Mus musculus [16]): 53%; Activity (Mus musculus [17]): 48%; Activity (Mus musculus [18]): 63%; Activity (Mus musculus [19]): 53%; Activity (Mus musculus [20]): 40% |
| COc1ccc(/C=N/NCC(=O)Nc2ccc(-n3c(C)nc4ccccc4c3=O)cc2)cc1 | 62.5 (≈ 142 µM) | 62.5 (≈ 142 µM) | 31.2 (≈ 70.8 µM) | 62.5 (≈ 142 µM) | 37 | 25 | 31 | 22 | 125 (≈ 283 µM) | 62.5 (≈ 142 µM) | 62.5 (≈ 142 µM) | 62.5 (≈ 142 µM) | 125 (≈ 283 µM) | 30 | 19 | 42 | 29 | 28 | 23 | 48 | UI (Rattus norvegicus [6]): 51%; UI (Rattus norvegicus [7]): 51%; UI (Rattus norvegicus [8]): 0.86 no unit; Activity (Mus musculus [16]): 35%; Activity (Mus musculus [17]): 32%; Activity (Mus musculus [18]): 40%; Activity (Mus musculus [19]): 35%; Activity (Mus musculus [20]): 24% |
| Cc1nc2ccccc2c(=O)n1-c1ccc(NC(=O)CN/N=C/c2ccc([N+](=O)[O-])cc2)cc1 | 15.6 (≈ 34.2 µM) | 15.6 (≈ 34.2 µM) | 7.81 (≈ 17.1 µM) | 15.6 (≈ 34.2 µM) | 36 | 26 | 29 | 20 | 31.2 (≈ 68.5 µM) | 7.81 (≈ 17.1 µM) | 15.6 (≈ 34.2 µM) | 7.81 (≈ 17.1 µM) | 31.2 (≈ 68.5 µM) | 31 | 20 | 40 | 31 | 27 | 25 | 49 | UI (Rattus norvegicus [6]): 31%; UI (Rattus norvegicus [7]): 34%; UI (Rattus norvegicus [8]): 0.8 no unit; Activity (Mus musculus [16]): 36%; Activity (Mus musculus [17]): 31%; Activity (Mus musculus [18]): 42%; Activity (Mus musculus [19]): 38%; Activity (Mus musculus [20]): 26% |
| Cc1nc2ccccc2c(=O)n1-c1ccc(NC(=O)CN/N=C/c2ccc(O)cc2)cc1 | 62.5 (≈ 146 µM) | 125 (≈ 292 µM) | 125 (≈ 292 µM) | 125 (≈ 292 µM) | 39 | 25 | 30 | 21 | 125 (≈ 292 µM) | 125 (≈ 292 µM) | 62.5 (≈ 146 µM) | 125 (≈ 292 µM) | 125 (≈ 292 µM) | 29 | 22 | 43 | 28 | 26 | 20 | 47 | UI (Rattus norvegicus [6]): 31%; UI (Rattus norvegicus [7]): 34%; UI (Rattus norvegicus [8]): 0.82 no unit; Activity (Mus musculus [16]): 34%; Activity (Mus musculus [17]): 30%; Activity (Mus musculus [18]): 43%; Activity (Mus musculus [19]): 36%; Activity (Mus musculus [20]): 23% |
| Cc1nc2ccccc2c(=O)n1-c1ccc(NC(=O)CN/N=C\c2c[nH]c3ccccc23)cc1 | 62.5 (≈ 139 µM) | 31.2 (≈ 69.4 µM) | 15.6 (≈ 34.7 µM) | 15.6 (≈ 34.7 µM) | 36 | 23 | 28 | 20 | 62.5 (≈ 139 µM) | 31.2 (≈ 69.4 µM) | 31.2 (≈ 69.4 µM) | 31.2 (≈ 69.4 µM) | 62.5 (≈ 139 µM) | 32 | 21 | 41 | 29 | 20 | 18 | 41 | UI (Rattus norvegicus [6]): 31%; UI (Rattus norvegicus [7]): 34%; UI (Rattus norvegicus [8]): 0.72 no unit; Activity (Mus musculus [16]): 29%; Activity (Mus musculus [17]): 25%; Activity (Mus musculus [18]): 35%; Activity (Mus musculus [19]): 30%; Activity (Mus musculus [20]): 19% |
| Cc1ccc(/C=N\NCC(=O)Nc2ccc(-n3c(C)nc4ccccc4c3=O)cc2)o1 | 62.5 (≈ 150 µM) | 125 (≈ 301 µM) | 62.5 (≈ 150 µM) | 31.2 (≈ 75.2 µM) | 35 | 25 | 31 | 19 | 62.5 (≈ 150 µM) | 62.5 (≈ 150 µM) | 125 (≈ 301 µM) | 62.5 (≈ 150 µM) | 62.5 (≈ 150 µM) | 30 | 23 | 39 | 30 | 21 | 19 | 38 | UI (Rattus norvegicus [6]): 31%; UI (Rattus norvegicus [7]): 34%; UI (Rattus norvegicus [8]): 0.77 no unit; Activity (Mus musculus [16]): 27%; Activity (Mus musculus [17]): 24%; Activity (Mus musculus [18]): 33%; Activity (Mus musculus [19]): 29%; Activity (Mus musculus [20]): 17% |
| O=C(O)c1cn(C2CC2)c2cc(N3CCNCC3)c(F)cc2c1=O [CIPROFLOXACIN] | – | – | 3.9 (≈ 11.8 µM) | 7.81 (≈ 23.6 µM) | – | – | – | – | 15.6 (≈ 47.1 µM) | 7.81 (≈ 23.6 µM) | 7.81 (≈ 23.6 µM) | 7.81 (≈ 23.6 µM) | 15.6 (≈ 47.1 µM) | – | – | – | – | – | – | – | – |
| O=C([O-])Cc1ccccc1Nc1c(Cl)cccc1Cl.[Na+] [DICLOFENAC SODIUM] | – | – | – | – | 51 | 36 | 40 | 31 | – | – | – | – | – | 43 | 29 | 60 | 42 | 41 | 32 | 64 | Activity (Mus musculus [16]): 49%; Activity (Mus musculus [17]): 44%; Activity (Mus musculus [18]): 55%; Activity (Mus musculus [19]): 47%; Activity (Mus musculus [20]): 34% |
| CC(=O)N1CCN(c2ccc(OCC3COC(Cn4ccnc4)(c4ccc(Cl)cc4Cl)O3)cc2)CC1 (stereo not drawn) [KETOCONAZOLE] | 7.81 (≈ 14.7 µM) | 15.6 (≈ 29.4 µM) | – | – | – | – | – | – | – | – | – | – | – | – | – | – | – | – | – | – | – |
